The values below come from patent US10294229B2, “Heteroaryl substituted aminopyridine compounds” (BRISTOL-MYERS SQUIBB COMPANY, priority 2015, dated 2019).

Assay [1] has as its system Human whole blood stimulated with a TLR2 agonist (lipoteichoic acid), IL-6 levels. The experiment in a line: IRAK4 Whole Blood Assay. The class given is cell-based. The note with it: Homo sapiens, lipoteichoic acid 10 μg/mL. The method, then:
Human whole blood containing the anti-coagulant ACD-A was plated in 384-well plate (25 μL/well) and incubated with compounds for 60 minutes at 37° C. in a 5% CO2 incubator. The blood was stimulated with a TLR2 agonist, 10 μg/mL final concentration of lipoteichoic acid (Invivogen, San Diego, Calif.) in 25 μL RPMI (Gibco) for 5 hours in a 5% CO2 incubator. At the end of the incubation, plates were centrifuged at 2300 rpm for 5 minutes. Supernatants were harvested and analyzed for IL-6 levels by Flow Cytometry beads assay (BD Biosciences, San Jose, Calif.).

For assay [2], the target named is IRAK4 (Homo sapiens (Human), UniProt Q9NWZ3). In words: IRAK4 Inhibition Assay. The class given is biochemical. The note with it: ATP 500 μM; IRAK4 0.6 nM. The essentials: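 Enzyme 0.6 nM, ATP 500 μM, FL-peptide 1.5 μM, DMSO 1.6%; HEPES pH 7.2/MgCl2/Brij 35/DTT buffer. RT, 60 min, EDTA stop. Mobility-shift product/substrate ratio; % inhib vs no-enzyme and vehicle controls.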
Chain of IRAK4 (Q9NWZ3 whole entry, species assumed): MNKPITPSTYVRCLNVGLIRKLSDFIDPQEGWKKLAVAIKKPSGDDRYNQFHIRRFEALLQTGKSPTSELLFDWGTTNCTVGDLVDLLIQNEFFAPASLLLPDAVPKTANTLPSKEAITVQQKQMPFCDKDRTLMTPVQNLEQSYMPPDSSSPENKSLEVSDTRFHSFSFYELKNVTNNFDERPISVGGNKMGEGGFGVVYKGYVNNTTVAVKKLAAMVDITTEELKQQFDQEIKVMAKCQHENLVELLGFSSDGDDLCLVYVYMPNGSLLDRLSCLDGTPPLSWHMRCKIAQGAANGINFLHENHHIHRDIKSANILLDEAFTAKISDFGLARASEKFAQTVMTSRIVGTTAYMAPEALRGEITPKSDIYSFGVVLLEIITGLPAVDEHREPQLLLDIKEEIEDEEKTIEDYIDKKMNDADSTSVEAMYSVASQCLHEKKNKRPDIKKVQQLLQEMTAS

In assay [1], `CC(C)Nc1cc(-n2ncc3cc(C#N)cnc32)ncc1-c1cn(CCCCCN)nn1` [Example 114, 1-(5-(1-(5-aminopentyl)-1H-1,2,3-triazol-4-yl)-4-(isopropylamino)pyridin-2-yl)-1H-pyrazolo[3,4-b]pyridine-5-carbonitrile] displayed an EC50 of 870 nM. Moreover, the IC50 in assay [2] stood at 3 nM.

`CC(C)Nc1cc(-n2ncc3cc(C#N)cnc32)ncc1-c1cn(CCS(C)(=O)=O)nn1` [Example 116, 1-(4-(isopropylamino)-5-(1-(2-(methylsulfonyl)ethyl)-1H-1,2,3-triazol-4-yl)pyridin-2-yl)-1H-pyrazolo[3,4-b]pyridine-5-carbonitrile] yielded an EC50 in assay [1] of 210 nM. Also, the IC50 in assay [2] stood at 3 nM.

`CC(C)Nc1cc(-n2ncc3cc(C#N)cnc32)ncc1-c1cn(CCc2ccccn2)nn1` [Example 118, 1-(4-(isopropylamino)-5-(1-(2-(pyridin-2-yl)ethyl)-1H-1,2,3-triazol-4-yl)pyridin-2-yl)-1H-pyrazolo[3,4-b]pyridine-5-carbonitrile] displayed an EC50 in assay [1] of 1090 nM. Moreover, the IC50 in assay [2] was 3 nM.

Molecule `COCCn1cc(-c2cnc(-n3ncc4cc(C#N)cnc43)cc2NC(C)C)nn1` [Example 121, 1-(4-(isopropylamino)-5-(1-(2-methoxyethyl)-1H-1,2,3-triazol-4-yl)pyridin-2-yl)-1H-pyrazolo[3,4-b]pyridine-5-carbonitrile] yielded a concentration for a half-maximal effect (EC50) in assay [1] of 1740 nM. Besides, the IC50 in assay [2] came to 6 nM.

Take `CC(C)Nc1cc(-n2ncc3cc(C#N)cnc32)ncc1-c1cn(CCCCCO)nn1` [Example 125, 1-(5-(1-(5-hydroxypentyl)-1H-1,2,3-triazol-4-yl)-4-(isopropylamino)pyridin-2-yl)-1H-pyrazolo[3,4-b]pyridine-5-carbonitrile]: the EC50 in assay [1] was 1760 nM. Further, the IC50 in assay [2] is 3 nM.

Regarding `CC(C)Nc1cc(-n2ncc3cc(C#N)cnc32)ncc1-c1cn(CCN(C)C)nn1` [Example 126, 1-(5-(1-(2-(dimethylamino)ethyl)-1H-1,2,3-triazol-4-yl)-4-(isopropylamino)pyridin-2-yl)-1H-pyrazolo[3,4-b]pyridine-5-carbonitrile], the EC50 in assay [1] was 390 nM. The IC50 in assay [2] was 4 nM.

Consider `CC(C)Nc1cc(-n2ncc3cc(C#N)cnc32)ncc1-c1cn(CCCN2CCCC2)nn1` [Example 127, 1-(4-(isopropylamino)-5-(1-(3-(pyrrolidin-1-yl)propyl)-1H-1,2,3-triazol-4-yl)pyridin-2-yl)-1H-pyrazolo[3,4-b]pyridine-5-carbonitrile], for which, in assay [1], the EC50 is 2950 nM. In addition, in assay [2], the IC50 came to 10 nM.

Turning to `CC(C)Nc1cc(-n2ncc3cc(C#N)cnc32)ncc1-c1cn(CC(O)C(F)(F)F)nn1` (centres unmarked) [Example 129, 1-(4-(isopropylamino)-5-(1-(3,3,3-trifluoro-2-hydroxypropyl)-1H-1,2,3-triazol-4-yl)pyridin-2-yl)-1H-pyrazolo[3,4-b]pyridine-5-carbonitrile], a half-maximal effect in assay [1] (EC50) was put at 830 nM. For the same molecule, the IC50 in assay [2] amounted to 7 nM.

As to `CC(C)Nc1cc(-n2ncc3cc(C#N)cnc32)ncc1-c1cn(CCCc2ccccc2)nn1` [Example 130, 1-(4-(isopropylamino)-5-(1-(3-phenylpropyl)-1H-1,2,3-triazol-4-yl)pyridin-2-yl)-1H-pyrazolo[3,4-b]pyridine-5-carbonitrile], the midpoint of the response in assay [1], the EC50, lay at 10700 nM. The IC50 in assay [2] was 5 nM.

`CC(C)Nc1cc(-n2ncc3cc(C#N)cnc32)ncc1-c1cn(CC(O)CO)nn1` (centres unmarked) [Example 131, 1-(5-(1-(2,3-dihydroxypropyl)-1H-1,2,3-triazol-4-yl)-4-(isopropylamino)pyridin-2-yl)-1H-pyrazolo[3,4-b]pyridine-5-carbonitrile] came in with an EC50 in assay [1] of 1080 nM. The IC50 in assay [2] is 12 nM.

The molecule `COCC(O)Cn1cc(-c2cnc(-n3ncc4cc(C#N)cnc43)cc2NC(C)C)nn1` (centres unmarked) [Example 133, 1-(5-(1-(2-hydroxy-3-methoxypropyl)-1H-1,2,3-triazol-4-yl)-4-(isopropylamino)pyridin-2-yl)-1H-pyrazolo[3,4-b]pyridine-5-carbonitrile] gave an EC50 in assay [1] of 980 nM. Besides, in assay [2], the concentration for half-maximal inhibition (IC50) was determined as 10 nM.

As to `CC[C@H](O)Cn1cc(-c2cnc(-n3ncc4cc(C#N)cnc43)cc2NC(C)C)nn1` [Example 134, (S)-1-(5-(1-(2-hydroxybutyl)-1H-1,2,3-triazol-4-yl)-4-(isopropylamino)pyridin-2-yl)-1H-pyrazolo[3,4-b]pyridine-5-carbonitrile], in assay [1], the EC50 was determined as 550 nM. Also, in assay [2], the IC50 turned out to be 6 nM.

For `CC(C)Nc1cc(-n2ncc3cc(C#N)cnc32)ncc1-c1cn(CC(O)C(C)C)nn1` (centres unmarked) [Example 135, 1-(5-(1-(2-hydroxy-3-methylbutyl)-1H-1,2,3-triazol-4-yl)-4-(isopropylamino)pyridin-2-yl)-1H-pyrazolo[3,4-b]pyridine-5-carbonitrile], the concentration for a half-maximal effect (EC50) in assay [1] came to 1190 nM. The 50% inhibitory concentration (IC50) in assay [2] amounted to 4 nM.

In assay [1], `CCOCC(O)Cn1cc(-c2cnc(-n3ncc4cc(C#N)cnc43)cc2NC(C)C)nn1` (centres unmarked) [Example 137, 1-(5-(1-(3-ethoxy-2-hydroxypropyl)-1H-1,2,3-triazol-4-yl)-4-(isopropylamino)pyridin-2-yl)-1H-pyrazolo[3,4-b]pyridine-5-carbonitrile] came in with an EC50 of 1690 nM. Besides, the IC50 in assay [2] amounted to 8 nM.

Take `CC(C)Nc1cc(-n2ncc3cc(C#N)cnc32)ncc1-c1cn(C2CN(C(=O)CC3CC3)C2)nn1` [Example 139, 1-(5-(1-(1-(2-cyclopropylacetyl)azetidin-3-yl)-1H-1,2,3-triazol-4-yl)-4-(isopropylamino)pyridin-2-yl)-1H-pyrazolo[3,4-b]pyridine-5-carbonitrile]: in assay [1], the EC50 was determined as 1090 nM. Also, in assay [2], the IC50 worked out at 4 nM.

Turning to `CC(C)Nc1cc(-n2ncc3cc(C#N)cnc32)ncc1-c1cn(C2CN(C#N)C2)nn1` [Example 141, 1-(5-(1-(1-cyanoazetidin-3-yl)-1H-1,2,3-triazol-4-yl)-4-(isopropylamino)pyridin-2-yl)-1H-pyrazolo[3,4-b]pyridine-5-carbonitrile], in assay [1], the 50% effective concentration (EC50) is 960 nM. Moreover, the IC50 in assay [2] was found to be 8 nM.

Molecule `COC(=O)N1CC(n2cc(-c3cnc(-n4ncc5cc(C#N)cnc54)cc3NC(C)C)nn2)C1` [Example 142, methyl 3-(4-(6-(5-cyano-1H-pyrazolo[3,4-b]pyridin-1-yl)-4-(isopropylamino)pyridin-3-yl)-1H-1,2,3-triazol-1-yl)azetidine-1-carboxylate] had an EC50 in assay [1] of 560 nM. In addition, the IC50 in assay [2] worked out at 5 nM.

Regarding `CC(C)Nc1cc(-n2ncc3cc(C#N)cnc32)ncc1-c1cn(C2CN(C(=O)c3ccccc3)C2)nn1` [Example 143, 1-(5-(1-(1-benzoylazetidin-3-yl)-1H-1,2,3-triazol-4-yl)-4-(isopropylamino)pyridin-2-yl)-1H-pyrazolo[3,4-b]pyridine-5-carbonitrile], the EC50 in assay [1] was found to be 970 nM. In addition, the concentration for half-maximal inhibition (IC50) in assay [2] stood at 8 nM.

The molecule `CC(C)Nc1cc(-n2ncc3cc(C#N)cnc32)ncc1-c1cn(C2CN(C(=O)C(C)C)C2)nn1` [Example 144, 1-(5-(1-(1-isobutyrylazetidin-3-yl)-1H-1,2,3-triazol-4-yl)-4-(isopropylamino)pyridin-2-yl)-1H-pyrazolo[3,4-b]pyridine-5-carbonitrile] came in with an EC50 in assay [1] of 490 nM. In assay [2], the IC50 is 4 nM.
